Test results from patent US20250026747A1, “COLIBACTIN DERIVATIVES AND METHODS OF TREATING, AMELIORATING, AND/OR PREVENTING CANCER” (priority 2021, published 2025).

Assays:
Type in all cases: cell-based, human
[1] = Cell viability assay (CellTiter-GLO) in HeLa cells; details: human, 72 h, 24 nM to 100 μM, normalized to tamoxifen 60 μM and DMSO, read-out: half-maximal inhibitory potency (IC50), cytotoxicity
Protocol: (§1) FIGS. 12A-12E show the results of the Cell viability assays. Specifically, HeLa cells were incubated with: (FIG. 12A) compound 9; (FIG. 12B) colibactin 742 (4); (FIG. 12C) compound 22; (FIG. 12D) compound 23; or (FIG. 12E) compound 24 at 24 nM-100 μM for 72 h, according some embodiments. The cells were then incubated with CTG reagent and the luminescence was measured. Results were normalized to DMSO control (0.1%, 0% effect) tamoxifen (60 μM, 100% effect). The points are the averages of twelve measurements (triplicates of four). The lines are four parameters logistic regression (4PL) fit. Error bars represent 95% confidence ranges.
(§2) Experiments to determine if the cyclized and linear forms (colibactin 742 (4) and 9, respectively) are cytotoxic were conducted. As discussed above, the timing of the cyclization events that form the colibactin warheads is not known. To probe this, the instant study measured the cytotoxicity of both the linear precursor 9 and colibactin 742 (4) toward human cervical cancer cells (HeLa). The compounds were incubated for 72 h at concentrations ranging from 24 nM to 100 μM. Cell viability was measured using CellTiter GLO assay and normalized to tamoxifen (60 μM, set at 100% effect) and methyl sulfoxide (DMSO, set at 0% effect). […] Additionally, this observation further supports the notion that while the C36-C37 1,2-diketone may dictate colibactin's half-life within the gut, it may not play a critical role in DNA damage.
(§3) Hela cells were grown in Dulbecco's Modified Eagle Medium (DMEM) supplemented with fetal bovine serum (FBS, 10%) and penicillin-streptomycin (0.1%) at 37° C. in a 95% humidity atmosphere under 5% CO2 environment. Cytotoxicity was determined using a CellTiter-GLO Assay. Cells were seeded at a density of 400 cells to achieve total well volumes of 20 μL in 384-well plates (black with an optically clear bottom, Greiner Bio One 781091) using a Thermo Combidrop liquid dispenser and grown for […] at 37° C., 5% CO2. Cells were grown for 24 h, followed by the addition of test compounds using an Echo acoustic liquid handler (Labcyte). For each tested drug concentration, a 20 nL aliquot of the 1000× stock was added to 20 μL of cells to provide a final DMSO concentration of 0.1%. The compounds were incubated for 72 h at concentrations ranging from 24 nM to 100 μM. Each plate contained negative vehicle control wells (0.1% DMSO) and positive control wells (60 μM tamoxifen). After 72 h, the cells were treated with 10 μL CTG reagent. […] The resulting luminescence was measured using a plate reader (Infinite M1000, TECAN Group AG). Biological triplicates, each measured four times (N=12), for each compound were recorded for each concentration and IC50 values were determined using Prism 9 (Graph Pad) fit with a four parameters nonlinear regression.

FANCD2 = experiment: Immunofluorescence assay of FANCD2 foci in HeLa cells; details: 4 h treatment, 20 h further culture; for FANCD2 foci formation: 1-100 μM
Protocol: (§4) FIGS. 7A-7B evaluates the Colibactin 742 (4) and its linear precursor 9 recapitulate the clb phenotype. […] HeLa cells were treated with the linear precursor 9 (1-100 μM), colibactin 742 (4) (1-100 μM) or MMC (150 nM) for 4 h. The cells were then washed and incubated for 20 h before immunofluorescence imaging. Cells were considered positive when >5 FANCD2 or γH2AX foci formed. Means and standard deviations of results from at least three independent experiments are shown. FIG. 7B depicts the DNA content histograms upon treatment with colibactin 742 (4, 11 μM) or 9 (11 μM) quantification of the sub-population of the histograms.
The present study then probed the DNA damage response that was activated following exposure to colibactin 742 (4) or its linear precursor 9. In mammalian cells, DNA interstrand cross-links (ICLs) are repaired by the Fanconi anemia pathway, and activation of this pathway is observed when eukaryotic cells are infected with clb^+ bacteria. Upon detection of an ICL, the Fanconi anemia protein D2 (FANCD2) is activated by monoubiquitinylation and recruited to the ICL to coordinate repair. Following initiation of repair, a double-strand break (DSB) is generated, which in turns triggers the formation of phospho-SER139-H2AX (γH2AX) nuclear foci. […] Consequently, the instant study probed for activation of FANCD2 and γH2AX by immunofluorescence imaging in cells treated with 4 or 9. Using conditions that closely mimic the bacterial coinfection experiments, the instant study treated HeLa cells with colibactin 742 (4) (1-100 μM), the linear precursor 9 (1-100 μM), or MMC (150 nM, higher concentrations of MMC reduced cell viability) for 4 h. The cells were then washed and cultured for a further 20 h. […] Thus, the synthetic compounds 4 and 9 induce a similar activation of the eukaryotic DNA damage response as clb^+ E. coli.
Cells were seeded at a density of 3500 cells per well to achieve total well volumes of 20 μL in 384-well plates (black with an optically clear bottom, Greiner Bio One 781091) using a Thermo Combidrop liquid dispenser. Cells were grown for 24 h, followed by the addition of test compounds using an Echo acoustic liquid handler (Labcyte). For each tested drug concentration, a 20 nL aliquot of the 1000× stock was added to 20 μL of cells to provide a final DMSO concentration of 0.1%. The compounds were incubated for 4 h at concentrations ranging from 1.2 μM to 100 μM in growth medium, at 37° C., 5% CO2. Each plate contained negative vehicle control wells (0.1% DMSO) and positive control wells (0.15 μM Mitomycin C, MMC). After 4 h incubation, the cells were washed once with Dulbecco's Phosphate-buffered solution (DPBS, Life Technologies), then fresh growth medium was added. The cells were incubated for 20 h, fixed, and subjected to immunofluorescence imaging.
Cells were fixed with 4% paraformaldehyde (PFA) (Electron Microscopy Sciences) in the presence of 0.02% Triton X-100 at room temperature (RT) for 20 min and then incubated in permeabilization/blocking solution [10% FBS and 0.5% Triton X-100 in phosphate-buffered saline (PBS)] at RT for 1 h. Primary antibodies were diluted 1:500 in permeabilization/blocking solution and used to stain cells at 4° C. overnight. […] Cells were imaged using the InCell 2200 Imaging System (GE Corp.) and analyzed using InCell Analyzer software (GE Corp.) to quantify the number of γH2AX and FANCD2 foci. Cells were counted as positive for focus formation when 5 foci/nucleus were detected.

HeLa cells [2] = experiment: Cell cycle analysis (DNA content histograms) in HeLa cells; details: >11 μM
Protocol: as §4
DNA content histograms and quantification of the sub-population of the histograms.
It has also been reported that clb^+ bacteria induce cell cycle arrest at the G2/M phase and eventual mitotic catastrophe.

HeLa cells [3] = experiment: Cell viability assay (CellTiter-GLO) in HeLa cells; details: 72 h, 24 nM to 100 μM
Protocol: as §1, §2, §3

| Structure (SMILES) | IC50 [1] [µM] | number of positive cells for FANCD2 foci (FANCD2; 11 μM, positive when >5 foci) | cell death and decrease in positive cells at higher concentrations (FANCD2; higher concentrations (>33 μM)) | cell cycle arrest at G2/M (HeLa cells [2]) | cytotoxicity (HeLa cells [3]) | FANCD2 foci formation (FANCD2) | number of positive cells for FANCD2 foci (with respect to DMSO) (FANCD2; 33 μM) |
| --- | --- | --- | --- | --- | --- | --- | --- |
| C[C@H]1CCC(CC(=O)NC2(C(=O)CC(=O)NCC(=O)c3csc(CCc4csc(CNC(=O)CC(=O)C5(NC(=O)CC6=N[C@@H](C)CC6)CC5)n4)n3)CC2)=N1 [compound 9] | 7.2 ± 1.7 | four-fold increase | induced cell death | accumulation of cells in G2 | – | – | – |
| C[C@H]1CCC(C2=C(CC(=O)NCC(=O)c3csc(CCc4csc(CNC(=O)CC5=C(C6=N[C@@H](C)CC6)C(=O)NC5(C)C)n4)n3)C(C)(C)NC2=O)=N1 [compound 22] | – | – | – | – | showed no toxicity | did not induce | – |
| CCOC(=O)c1csc(CNC(=O)CC2=C(C3=N[C@@H](C)CC3)C(=O)NC23CC3)n1 [compound 23, reference compound] | 8.4 ± 2.4 | – | – | – | – | – | three-fold increase |
| CCOC(=O)c1nc(C2(O)CNC(=O)C2C2=C(C3=N[C@@H](C)CC3)C(=O)NC23CC3)cs1 (stereo partly shown) [compound 24] | – | – | – | – | showed no toxicity | did not induce | – |
